# Source: paper PMC5341572, “Self-Assembly and Anti-Amyloid Cytotoxicity Activity of Amyloid beta Peptide Derivatives” (Scientific Reports, 2017)
# Several values for one entry are separate records, joined by “and”; a condition that tells them apart may be missing. Equal values may be shown once. Entries after “also recorded” stand apart in the source; their conditions may differ.
# Legend:
# [1] = ANS fluorescence assay for critical aggregation concentration (cac); assay type: physicochemical; details: discontinuity in concentration-dependent ANS fluorescence; 74 μM ANS solution, λex 356 nm, spectra 400-670 nm
# Description: 8-anilo-1-naphthalenesulfonic acid (ANS) and thioflavin T (ThT) fluorescence were used to locate the critical aggregation concentration (cac). Spectra were recorded with a Varian Cary Eclipse fluorescence spectrometer with samples in 4 mm inner width quartz cuvettes. The ANS fluorophore is a probe sensitive to the hydrophobicity of its surrounding environment, making it suitable to determine the cac. ANS assays were performed measuring spectra from 400 to 670 nm (λex = 356 nm), using a 74 μM ANS solution to solubilize the peptide. ThT fluorescence depends on the formation of amyloid-like structures[36][37] (β-sheet fibrils) and is used for amyloid fibril-forming peptides. For the ThT assay, the spectra were recorded from 460 to 600 nm using an excitation wavelength of λex = 440 nm, and the peptide was dissolved in a 5.0 × 10^−3 wt % ThT solution.
# [2] = ESI mass spectrometry of peptide oligomerisation with and without HFIP; assay type: physicochemical
# Description: Samples were diluted to 0.029 wt % peptide in both H2O and HFIP:H2O (1:9; v/v). ESI mass spectra were acquired in positive ion mode on a Synapt G2-Si instrument (Waters Corporation, Wilmslow, UK). The employed Z-spray ESI source (Waters Corporation, Wilmslow, UK) was operated at 1.8 kV and the ESI sample solutions were infused at 10 μL/min using a KD Scientific syringe pump (KD Scientific Inc., Holliston, USA). The desolvation and source temperature were 150 °C and 80 °C, respectively, and the cone voltage was set to 40 V. ESI mass spectra were acquired in triplicate in sensitivity mode with the exception of higher resolution mass spectra, which were acquired once in resolution mode with ion mobility separation enabled. For the latter, wave velocity and wave height were set to 650 m/s and 40 V, respectively, and the helium and nitrogen flow rates were 180 and 90 mL/min, respectively. The acquired data was converted to mzML format using the msconvert tool from the ProteoWizard software package. In-house developed software based on the pymzML software library[62] was used to extract the integrated isotopomer signal intensities of interest from the converted data files. The integrated ion signal intensities of the monomer (SM) and all oligomers (SO) were summed for each acquired spectrum to determine the total ion signal intensity of the analysed peptide species (ST):
# The relative extent of oligomerisation (EO) was determined by dividing the integrated ion signal intensities of the oligomers (SO) by the total ion signal intensity of the analysed peptide (ST): […]
# Aβ(1–42) = target: T1, Aβ(1–42) (Homo sapiens, UniProt P05067); assay: CD spectroscopy of Aβ(1–42) secondary structure on addition of peptide; details: Aβ(1–42):peptide molar ratio 1:1.2 for peptide 1 and 1:1.6 for peptide 2; Tris buffer pH 7.4
# T1 construct: purchased American Peptide Inc. (Sunnyvale, USA)
# Description: HFIP was then evaporated under a slow stream of N2.
# CD spectra were recorded using a Chirascan spectropolarimeter (Applied Photophysics, UK). Peptide solutions were placed in a cover slip cuvette (1 × 10^−2 or 0.1 mm thick), spectra presented being with absorbance A < 2 at any measured point with a 0.5 nm step, 1 nm bandwidth, and 1 s collection time per step. The CD signal from the background was subtracted from the CD data of the sample solutions. […] CD experiments were performed using a Quartz cuvette with 1mm path length.
# [3] = system: primary rat cortical neurons; assay: MTS neurotoxicity assay with primary neurons; assay type: cell-based; details: final Aβ 20 μM, 20 h
# [4] = system: SH-SY5Y neuroblastoma cells; assay: MTS neurotoxicity assay with SH-SY5Y cells; assay type: cell-based; details: 24 h
# Description: SH-SY5Y neuroblastoma cells were maintained in a 1:1 ratio of Ham’s F12 and Dulbecco’s Modified Eagle Medium with 10% foetal calf serum and penicillin/streptomycin at 37 °C and 5% CO2. At 85–95% confluence the cells were detached from their growth substrate using trypsin and the growth medium was removed following centrifugation of the cells at 500xg for five minutes. The cells were re-suspended in a serum-free medium (Optimem with penicillin/streptomycin) and distributed at 20,000 cells per well in a 96-well plate then incubated at 37 °C, 5% CO2 for a further 24 hours. […] Cells were incubated for a further 24 hours as above and then assayed for cell survival using an MTS based assay (CellTiter 96 AQueous One Solution Cell Proliferation Assay from Promega).
# [5] = peptide to Aβ(1–42) ratio 1:2 (2.5 μM peptide, 5 μM Aβ)
# [6] = peptide to Aβ(1–42) ratio 1:5 (1 μM peptide, 5 μM Aβ)
# [7] = peptide to Aβ(1–42) ratio 1:20 (0.25 μM peptide, 5 μM Aβ)
# T1 sequence (P05067 672-713): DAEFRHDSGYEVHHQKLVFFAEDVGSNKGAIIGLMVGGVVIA
Structure (SMILES),"critical aggregation concentration (cac), ANS assay (hydrophobic collapse) [1]",aggregation state n of self-assemblies (oligomers) seen by ESI MS ([2]; 0.029 wt% peptide),"relative extent of oligomerisation (Eo)H2O ([2]; 0.029 wt% peptide in H2O, positive-ion ESI MS, oligomer signal / total peptide signal, spectra in triplicate)","relative extent of oligomerisation (Eo)HFIP ([2]; 0.029 wt% peptide in HFIP:H2O (1:9 v/v), positive-ion ESI MS, oligomer signal / total peptide signal, spectra in triplicate)",β-sheet minimum (216 nm) in CD spectrum of Aβ(1–42) upon addition of peptide (Aβ(1–42)),"effect on viability of Aβ(1–42)-treated neurons ([3]; Aβ:peptide 1:1 (equimolarity), co-incubated 72 h with 100 μM Aβ(1–42))","improvement of viability of Aβ(1–42)-treated neurons ([3]; Aβ:peptide molar ratio 1:1.5, co-incubated 72 h, p < 0.05)","effect on Aβ(1–42) cytotoxicity, in words [4, 5]","effect on Aβ(1–42) cytotoxicity, in words [4, 6]","effect on Aβ(1–42) cytotoxicity, in words [4, 7]","effect of peptide alone on cells, in words ([4]; 2.5 μM peptide in the absence of Aβ(1–42))","effect on Aβ(1–42) cytotoxicity, in words ([4]; peptide to Aβ(1–42) ratio 1:2 (2.5 μM peptide, 5 μM Aβ), listed as Peptide 2)"
"CC(C)C[C@H](NC(=O)[C@@H](N)CCCCN)C(=O)N[C@H](C(=O)N[C@@H](Cc1ccccc1)C(=O)N[C@@H](Cc1ccccc1)C(N)=O)C(C)C [peptide 1, NH2-KLVFF-CONH2]",1.00 ± 5 × 10^−2 wt% and ~ 1 wt%,≤ 7,0.040 ± 0.002,0.046 ± 0.002,significantly reduced,no effect,~ 70%,block the cytotoxic effect,not very effective; also recorded: no protective effect,not very effective; also recorded: no protective effect,,
"CC(C)C[C@H](NC(=O)[C@@H](N)CCCCNC(=O)OC(C)(C)C)C(=O)N[C@H](C(=O)N[C@@H](Cc1ccccc1)C(=O)N[C@@H](Cc1ccccc1)C(N)=O)C(C)C [peptide 2, NH2-K(Boc)LVFF-CONH2]",,,,,,,,block the cytotoxic effect,positive effect,positive effect,negative effect,rescues the cells
